For 16 molecules, GI50 and TGI results are on record in PubChem BioAssay (NCI).

Several values for one entry are separate records, joined by “and”; a condition that tells them apart may be missing. Identical values can stand only once.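 Compound exposure: 48 hours, 5 concentrations, 96-well plates. Abbreviation: GI50, concentration required for 50% inhibition of growth. TGI is the concentration that stops growth completely.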 A value given as a limit tells only on which side of the number the result lay.

One assay concerns HS 578T breast. In words: growth of human tumour cells (NCI), 48 h.
With `O=[N+]([O-])c1ccc(C=Cc2ccccc2)cc1.[C-]#[O+].[C-]#[O+].[C-]#[O+].[Cr]`, the GI50 is 62.9 µM and the TGI is above 100 µM.
Take `OCC1OC(n2cnc3c(N/N=C\c4ccccn4)ncnc32)C(O)C1O` (configuration not stated): the GI50 is 1.78 µM and the TGI is above 51.4 µM.
The like results for `COc1cccc(OC(=O)c2ccc(C(F)(F)F)nc2Nc2cc(Cl)ccc2C)c1` were, in that order, 1.23 µM and 4.79 µM.
On the same counts, the results for `c1cnn2ncc(-c3ccnc(NCCCN4CCOCC4)n3)c2c1` are 6.2 µM and above 23.1 µM.
On the same counts, the results for `O=C(Nc1ccc(OCc2nnc(-c3ccc(Cl)cc3)o2)c(F)c1)Nc1ccc(Cl)c(C(F)(F)F)c1` are 2.13 µM and 7.96 µM.
As to `COc1ccc2c(c1)N(CCO)C1=C(C(=O)OC1)C2c1cccc(F)c1` (configuration not stated), the GI50 was 0.511 µM and the TGI was above 50 µM.
On the same counts, the results for `C/C(=C\c1ccc2ccccc2c1)[N+](=O)[O-]` are 2.54 µM and 9.26 µM.
Turning to `C=CC(=O)Nc1cccc(Oc2nc(Nc3ccc(N4CCN(C)CC4)cc3)nc3ccsc23)c1`, the GI50 was 6.16 µM and 4.88 µM; the TGI is > 10 µM and 41.3 µM.
For the molecule `OCc1ccc(N2CCCC2c2ccccc2)cc1Cl` (configuration not stated), the GI50 is 7.4 µM and the TGI was 30.8 µM.
Regarding `COC1C=COC2(C)Oc3c(C)c(O)c4c(c3C2=O)/C(=N/C2CCC(O)OC2C)C=C(NC(=O)/C(C)=C\C(=O)C2CC2C(O)C(C)C(O)C(C)C(OC(C)=O)C1C)C4=O` (configuration not stated), the TGI worked out at 8.38 µM.
As for `CC(=O)/C=C/c1cn(C(=O)OC(C)(C)C)c2ccc(Br)cc12`, the GI50 is 26.8 µM and the TGI worked out at 65.4 µM.
The like results for `CCOc1ccccc1C(=O)N1CCN(c2cc(Cl)cc(Cl)c2)CC1` were, in that order, 0.0327 µM and 16.4 µM.
In turn, `NC(CSC1c2ccccc2-c2ccccc21)C(=O)O` (configuration not stated) yielded a TGI above 100 µM.
For `Cc1cc(S(=O)(=O)/N=C(/N)Nc2ccccc2O)c(SCc2ccccc2)cc1Cl`, the GI50 was 21.8 µM and the TGI turned out to be 47.9 µM.
Molecule `COc1cc2c(c(OC)c1OC)-c1ccc(SC)c(=O)cc1C(NC(=O)c1ccccc1)CC2` (configuration not stated) returned a TGI of 5.34 µM.
Regarding `O=C1CCC(N2Cc3cc(CNC(=O)C(F)(F)c4ccc(Cl)cc4)ccc3C2=O)C(=O)N1` (configuration not stated), the GI50 was 1.71 µM and the TGI was above 100 µM.

Another assay relates to HT29 colon. The assay can be described thus: growth of human tumour cells (NCI), 48 h.
Turning to `O=[N+]([O-])c1ccc(C=Cc2ccccc2)cc1.[C-]#[O+].[C-]#[O+].[C-]#[O+].[Cr]`, the GI50 is 29.5 µM and the TGI is above 100 µM.
The like results for `OCC1OC(n2cnc3c(N/N=C\c4ccccn4)ncnc32)C(O)C1O` (configuration not stated) were, in that order, 0.417 µM and above 100 µM.
On to `COc1cccc(OC(=O)c2ccc(C(F)(F)F)nc2Nc2cc(Cl)ccc2C)c1`, for which the GI50 is 4.28 µM and the TGI is above 100 µM.
On the same counts, the results for `c1cnn2ncc(-c3ccnc(NCCCN4CCOCC4)n3)c2c1` are 7.43 µM and above 25 µM.
On the same counts, the results for `O=C(Nc1ccc(OCc2nnc(-c3ccc(Cl)cc3)o2)c(F)c1)Nc1ccc(Cl)c(C(F)(F)F)c1` are 2.29 µM and 5.69 µM.
The like results for `COc1ccc2c(c1)N(CCO)C1=C(C(=O)OC1)C2c1cccc(F)c1` (configuration not stated) were, in that order, 0.23 µM and above 19.8 µM.
For `C/C(=C\c1ccc2ccccc2c1)[N+](=O)[O-]`, the GI50 was 2.18 µM and the TGI came out at 4.46 µM.
On to `C=CC(=O)Nc1cccc(Oc2nc(Nc3ccc(N4CCN(C)CC4)cc3)nc3ccsc23)c1`, for which the GI50 is 1.91 µM and 2.72 µM; the TGI is 4.05 µM and 5.81 µM.
As to `OCc1ccc(N2CCCC2c2ccccc2)cc1Cl` (configuration not stated), the GI50 was 3.37 µM and the TGI came out at 14.3 µM.
Take `COC1C=COC2(C)Oc3c(C)c(O)c4c(c3C2=O)/C(=N/C2CCC(O)OC2C)C=C(NC(=O)/C(C)=C\C(=O)C2CC2C(O)C(C)C(O)C(C)C(OC(C)=O)C1C)C4=O` (configuration not stated): the TGI stood at 2.71 µM.
Consider `CC(=O)/C=C/c1cn(C(=O)OC(C)(C)C)c2ccc(Br)cc12`, for which the GI50 is 10.6 µM and the TGI stood at 24.8 µM.
The like results for `CCOc1ccccc1C(=O)N1CCN(c2cc(Cl)cc(Cl)c2)CC1` were, in that order, 0.0316 µM and 2.29 µM.
In turn, `NC(CSC1c2ccccc2-c2ccccc21)C(=O)O` (configuration not stated) displayed a TGI above 100 µM.
Consider `Cc1cc(S(=O)(=O)/N=C(/N)Nc2ccccc2O)c(SCc2ccccc2)cc1Cl`, for which the GI50 was 32.5 µM and the TGI is above 100 µM.
With `COc1cc2c(c(OC)c1OC)-c1ccc(SC)c(=O)cc1C(NC(=O)c1ccccc1)CC2` (configuration not stated), the TGI is 1.12 µM.
As for `O=C1CCC(N2Cc3cc(CNC(=O)C(F)(F)c4ccc(Cl)cc4)ccc3C2=O)C(=O)N1` (configuration not stated), the GI50 was above 100 µM and the TGI was above 100 µM.

For another assay, the system named is MOLT-4 leukemia. The assay can be described thus: growth of human tumour cells (NCI), 48 h.
In the case of `O=[N+]([O-])c1ccc(C=Cc2ccccc2)cc1.[C-]#[O+].[C-]#[O+].[C-]#[O+].[Cr]`, the GI50 is 5.13 µM and the TGI was above 100 µM.
On the same counts, the results for `OCC1OC(n2cnc3c(N/N=C\c4ccccn4)ncnc32)C(O)C1O` (configuration not stated) are 0.0532 µM and above 100 µM.
The like results for `COc1cccc(OC(=O)c2ccc(C(F)(F)F)nc2Nc2cc(Cl)ccc2C)c1` were, in that order, 3.11 µM and 7.99 µM.
On the same counts, the results for `c1cnn2ncc(-c3ccnc(NCCCN4CCOCC4)n3)c2c1` are 9.61 µM and above 25 µM.
For the molecule `O=C(Nc1ccc(OCc2nnc(-c3ccc(Cl)cc3)o2)c(F)c1)Nc1ccc(Cl)c(C(F)(F)F)c1`, the GI50 is 2.07 µM and the TGI worked out at 7.5 µM.
The like results for `COc1ccc2c(c1)N(CCO)C1=C(C(=O)OC1)C2c1cccc(F)c1` (configuration not stated) were, in that order, 0.538 µM and above 50 µM.
On the same counts, the results for `C/C(=C\c1ccc2ccccc2c1)[N+](=O)[O-]` are 2.61 µM and 6.48 µM.
